{
  "source": "patent US20210145778A1",
  "about": "“Stable Liquid Compositions of Melphalan” (Orbicular Pharmaceutical Technologies Pvt. Ltd., priority 2018, published 2021)",
  "origin": "cited, not measured here",
  "data": [
    {"smiles": "N[C@@H](Cc1ccc(N(CCCl)CCCl)cc1)C(=O)O", "note": "[Melphalan, L-phenylalanine mustard]", "values": [
      {"measurement": "Stability in aqueous solutions", "result": "poor stability"}
    ]}
  ]
}
